According to patent US20230130066A1, “USE OF CYCLODEXTRINS IN DISEASES AND DISORDERS INVOLVING PHOSPHOLIPID DYSREGULATION” (priority 2017, published 2023):
“And” between values parts separate entries of the source, which are not always exact repeats. Identical values can stand only once. Like-named read-outs stand apart in the source and are kept apart here.

Legend:
[1] = test system: MCF-7 cells; experiment: Wound healing / gap closure migration assay, MCF-7; type: cell-based, human; settings: 2 h treatment; for wound closure, replications r1-r3: listed as HPbCD
Procedure: (§1) Cells were cultured in 24-well culture plates (Cytoselect CBA-120, 0.9 mm wound healing/gap closure migration assay) for 24 h with wound healing insert in place.
(§2) Protocol: Warm up the 24-well plate (CBA-120, Cell BioLabs Inc.) with 0.9 mm CytoSelect Wound Healing Inserts at room temperature for 10 minutes. Using sterile forceps, orient the desired number of inserts in the plate wells with their “wound field” aligned in the same direction. Create a cell suspension containing 0.5-1.0×10^6 cells/ml in media containing 10% fetal bovine serum (FBS). Add 500 μL of cell suspension to each well by carefully inserting the pipette tip through the open end at the top of the insert. For optimal cell dispersion, add 250 μL of cell suspension to either side of the open ends at the top of the insert. Incubate cells in a cell culture incubator for 12-24 hours. Carefully remove the insert from the well to begin the wound healing assay. Use sterile forceps to grab and lift the insert slowly from the plate well. Slowly aspirate and discard the media from the wells. Wash wells with media to remove dead cells and debris. Finally, add media to wells to keep cells hydrated. Repeat wash if wells still have debris or unattached cells. When washing is complete, add media with FBS and/or compounds to continue cell culture and wound healing process. Agents that inhibit or stimulate cell migration can be added directly to the wells. Incubate cells in a cell culture incubator (2 hours) and then wash cells with PBS and then add fresh media without compounds. Incubate 12-24 hours before wash and fixing. Remove the fixation solution and add 400 μL of Cell Stain Solution to each well. Allow the stain to incubate with the cells for 15 minutes at room temperature. Aspirate and discard the solution. Carefully wash each stained well 3× with deionized water. Discard washes and allow cells to dry at room temperature. Cells that migrated into the wounded area or protruded from the border of the wound were visualized and photographed under an inverted microscope. Determine the surface area of the defined wound area: Total Surface Area=0.9 mm x length. Determine the surface area of the migrated cells into the wound area: Migrated Cell Surface Area=length of cell migration (mm)×2×length. Percent Closure (%)=Migrated Cell Surface Area/Total Surface Area x 100.

[2] = test system: MDA-MB-231 cells; experiment: Wound healing / gap closure migration assay, MDA-MB-231; type: cell-based, human; settings: 2 h treatment; for wound closure, replications r1-r3: listed as HPbCD
Procedure: Published results have shown that β-CD inhibits human MDA-MB 231 cell migration. See Translational Medicine Communications, 1 (1), 3. This inhibition was attributed to the ability of β-CD to “deplete cholesterol”. β-CD, however, depletes also phospholipids.
as §1, §2

[3] = Table 3; cited from earlier work
[4] = cited from earlier work
[5] = in vivo; cited from earlier work
[6] = test system: BBB; settings: cited from earlier work
[7] = test system: BBB; settings: cited from earlier work; for Transport across BBB: 2 h, 1 mM
[8] = test system: rats; settings: cited from earlier work
[9] = cited from earlier work; remark: listed apart in the source
[10] = test system: unesterified cholesterol (UC) storage; settings: 3-week-old Npc1-/- mice, dorsal neocortex, filipin; cited from earlier work
[11] = test system: cats; settings: doses of 4-8 g/kg; cited from earlier work
[12] = mice, cats, and one human; cited from earlier work
[13] = cited from earlier work; remark: listed apart in the source
[14] = test system: Aβ42; settings: SwN2a cells; persistent for 24 h after withdrawal; cited from earlier work
[15] = test system: leukemia; settings: leukemia mouse models; cited from earlier work
[16] = test system: Tg19959 mice; settings: four months subcutaneous; cited from earlier work
[17] = test system: Tg19959 mice; settings: four months subcutaneous; cited from earlier work; remark: listed apart in the source
[18] = test system: HeLa/TFEB cells; settings: cited from earlier work
[19] = test system: LINCL fibroblasts; settings: dose- and time-dependent; cited from earlier work
[20] = test system: a-syn aggregates; settings: neuroglioma cells, via autophagy; cited from earlier work
[21] = rats, suppositories containing triglycerides (Witepsol H5); cited from earlier work
[22] = test system: membrane cholesterol; settings: SwN2a cells; cited from earlier work
[23] = test system: rats; settings: cited from earlier work; remark: listed apart in the source
[24] = test system: human keratinocytes; settings: cited from earlier work
[25] = test system: Caco-2 monolayers; settings: cited from earlier work; for equally effective concentration on paracellular permeability: after 40 min
[26] = mice with spinobulbar muscular atrophy (SBMA); cited from earlier work
[27] = test system: Aβ1-40/42; settings: rats, stereotactical injection into the hippocampus; cited from earlier work
[28] = test system: erythrocytes; settings: cited from earlier work
[29] = test system: transferrin endocytosis; settings: 10 mM; cited from earlier work
[30] = test system: NPC cells; settings: cited from earlier work
[31] = test system: rats; settings: […] daily; cited from earlier work
[32] = test system: Caco-2 cells; settings: cited from earlier work

In the case of “2-hydroxypropyl-β-cyclodextrin [HP-β-CD]”, the “average wound closure (avg)” value ([1]; MCF-7, 1 mM) is reported as 73.33%, the “wound closure, replications r1-r3” value ([1]; MCF-7, 1 mM) is reported as 68.00% and 74.00% and 78.00% and the “average wound closure (avg)” value ([1]; MCF-7, 2 mM) is reported as 48.33%. The “wound closure, replications r1-r3” value ([1]; MCF-7, 2 mM) was 41.00% and 48.00% and 56.00%, the “average wound closure (avg)” value ([1]; MCF-7, 4 mM) was 33.67% and the “wound closure, replications r1-r3” value ([1]; MCF-7, 4 mM) was 32.00% and 28.00% and 41.00%. For the same compound, the “average wound closure (avg)” value ([2]; MDA-MB-231, 1 mM) was 67.67%, the “wound closure, replications r1-r3” value ([2]; MDA-MB-231, 1 mM) was 62.00% and 68.00% and 73.00% and the “average wound closure (avg)” value ([2]; MDA-MB-231, 2 mM) was 56.00%. For the same compound, the “wound closure, replications r1-r3” value ([2]; MDA-MB-231, 2 mM) was 48.00% and 59.00% and 61.00%, the “average wound closure (avg)” value ([2]; MDA-MB-231, 4 mM) was 39.00% and the “wound closure, replications r1-r3” value ([2]; MDA-MB-231, 4 mM) was 48.00% and 44.00% and 25.00%. The Solubility in water [3] was >600 mg/mL, the “oral absorption in rats” value [4] was ≤3% and the “half-life (t1/2)” value [5] was 1.7 to 1.9 h. For the same compound, the “vol. of distribution (VD)” value [5] was 0.2 L/kg, the BBB breakdown [6] was 2.5 mM and the “toxicity on BBB in vitro” value [6] was “similar”. The “Transport across BBB” value [7] was 9.3%, the “effect of 1 g/kg in rats” value [8] was “did not cause adverse clinical signs” and the tolerability ([9]; children with NPC, doses of up to 1000 mg/kg/d) was “well tolerated”. For the same compound, the side effects ([9]; two children with NPC, about 2500 mg/kg bi-weekly (≈700 mg/kg/d), over a year) was “no discernable side effects”, the “UC storage in brain cells” value [10] was “highly effective reduction” and the ototoxicity [11] was “permanent hearing loss”. For the same compound, the ototoxicity [12] was “risk of causing permanent hearing loss”, the “bone mineral density (BMD)” value ([13]; long-term parenteral administration, 200 mg/kg) was “decrease bone mineral density” and the “levels of Aβ42” value [14] was “dramatically lowered”. The survival [15] was “prolonged survival”, the “spatial learning and memory deficits” value [16] was “significantly improved” and the Aβ plaque deposition [17] was “diminished”. The “tau immunoreactive dystrophic neurites (DN)” value [17] was “reduced”, the “expression of LC3, SQSTM1/p62 and BECN1” value [18] was “up-regulated” and the ceroid lipopigment [19] was “clearance of ceroid lipopigment”. The a-syn aggregates [20] was “promoted clearance”, the “absorption, administered rectally” value [21] was 26% and the “level of membrane cholesterol” value [22] was “reduced”. For the same compound, the “acute i.v. toxicity in rats” value [23] was 10 g/kg and the apoptotic cell death ([24]; human keratinocytes) was “not apoptotic”.
In the case of `CCCCCCCCCC(=O)O` [C10, Capric acid], the “equally effective concentration on paracellular permeability” value [25] is given as 13 mM.
In the case of `CCCCCCCCCCCC(=O)O` [C12, lauric acid], the tight junction morphology ([25]; Caco-2 monolayers) is listed as “did not induce detectable changes” and the “equally effective concentration on paracellular permeability” value [25] is listed as 0.75 mM.
In the case of `CN1CCCC1c1cccnc1` (stereo not drawn) [nicotine], the “transported through the BBB” value ([7]; in vitro, after 2 h of incubation) is given as 96%.
For `C[C@@]12C[C@@]3(O)O[C@@H](O1)[C@]1(COC(=O)c4ccccc4)[C@H]3C[C@@]12O[C@@H]1O[C@H](CO)[C@@H](O)[C@H](O)[C@H]1O` [paeoniflorin], the disease phenotype [26] is listed as “mitigates the disease phenotype”.
In the case of `OC[C@H]1O[C@@H]2O[C@H]3[C@H](O)[C@@H](O)[C@@H](O[C@H]4[C@H](O)[C@@H](O)[C@@H](O[C@H]5[C@H](O)[C@@H](O)[C@@H](O[C@H]6[C@H](O)[C@@H](O)[C@@H](O[C@H]7[C@H](O)[C@@H](O)[C@@H](O[C@H]8[C@H](O)[C@@H](O)[C@@H](O[C@H]1[C@H](O)[C@H]2O)O[C@@H]8CO)O[C@@H]7CO)O[C@@H]6CO)O[C@@H]5CO)O[C@@H]4CO)O[C@@H]3CO` [β-CD, beta-cyclodextrin], the BBB breakdown [6] is listed as 2.5 mM, the “toxicity on BBB in vitro” value [6] is listed as “similar” and the “Transport across BBB” value [7] is listed as 26.7%. The “Toxicity of Aβ1-40/42” value [27] was “reduced”, the cholesterol released ([28]; 10 mM) was 95% and the extraction of cholesterol ([28]; erythrocytes) was “most effectively”. For the same compound, the “reduction of transferrin endocytosis” value [29] was 80%, the cholesterol accumulation [30] was “can reduce cholesterol accumulation” and the “deaths, daily doses s.c.” value [31] was “no deaths”. For the same compound, the “acute i.v. toxicity in rats” value [23] was 1 g/kg and the apoptotic cell death [24] was “induces caspase-dependent apoptotic cell death”.
For `OC[C@H]1O[C@@H]2O[C@H]3[C@H](O)[C@@H](O)[C@@H](O[C@H]4[C@H](O)[C@@H](O)[C@@H](O[C@H]5[C@H](O)[C@@H](O)[C@@H](O[C@H]6[C@H](O)[C@@H](O)[C@@H](O[C@H]7[C@H](O)[C@@H](O)[C@@H](O[C@H]8[C@H](O)[C@@H](O)[C@@H](O[C@H]9[C@H](O)[C@@H](O)[C@@H](O[C@H]1[C@H](O)[C@H]2O)O[C@@H]9CO)O[C@@H]8CO)O[C@@H]7CO)O[C@@H]6CO)O[C@@H]5CO)O[C@@H]4CO)O[C@@H]3CO` [γ-CD, gamma-cyclodextrin], the cholesterol accumulation [30] is given as “can reduce cholesterol accumulation”.
In the case of alendronate-β-CD [ALN-β-CD], the effect on bone ([13]; rat, in vivo) is given as “bone-anabolic”.
In the case of maltosyl-α-CD, the cytotoxicity [32] is listed as “less cytotoxic than α-CD”.
